Values quoted from earlier work as cited in patent publication US7884090B2, “Compositions and methods for the treatment of arthritis” (priority 1999, dated 2011).

Assays:
[1] = tested on: pseudomonas aeruginosa, methicillin-resistant strains of Staph. aureus and Proteus
[2] = tested on: Staph haemolyticus, Staph hominis, Acinetobacter Iwoffi and further listed species up to Yersinia enterocolitica; details: in vitro

Row | SMILES | Strains against which active [1] | Strains against which effective [2]
1 | CCN[C@@H]1C[C@H](N)[C@@H](O[C@H]2OC(CN)=CC[C@H]2N)[C@H](O)[C@H]1O[C@H]1OC[C@](C)(O)[C@H](NC)[C@H]1O [netilmicin] | 85% | –
2 | O=C(O)c1cn(C2CC2)c2cc(N3CCNCC3)c(F)cc2c1=O [cipro, ciprofloxacin] | – | 90%
